Measured values: EPA's aquatic toxicity sets

The compounds below were run on Pimephales promelas (assay: 96 h LC50 (-log10 mol/L); higher = more toxic).

Row | Structure (SMILES) | 96 h LC50 (-log10 mol/L)
1 | O=Cc1ccc(Cl)cc1 | 4.8
2 | Nc1cc([N+](=O)[O-])cc([N+](=O)[O-])c1 | 3.93
3 | c1ccoc1 | 3.05
4 | CCCCCC(=O)OCC | 4.21
5 | N#CCCCCCCC#N | 2.41
6 | CCC(C)=NO | 2.01
7 | CCOP(=O)(Cc1ccccc1)OCC | 2.83
8 | CCCCCCCCCCC(C)=O | 5.19
9 | O=C(c1ccccc1)c1ccncc1 | 3.25
10 | CCCCOC(=O)CCC | 4.09
11 | C#CCO | 4.56
12 | O=C(O)CCCCC(=O)O | 3.18
13 | CC(O)CO (stereo not given) | 0.349
14 | C=CCc1ccc(O)c(OC)c1 | 3.83
15 | CCOC(=O)C(Cc1ccccc1)C(=O)OCC | 4.66
16 | COCCN | 2.16
17 | Cc1ccc(Cl)c(Cl)c1 | 4.74
18 | Nc1ccc(-c2ccc(N)c(Cl)c2)cc1Cl | 5.08
19 | c1ccc(SSc2ccccc2)cc1 | 6.3
20 | CCOC(=O)[C@H](C)N(C(=O)c1ccccc1)c1ccc(Cl)c(Cl)c1 | 5.68
21 | Cc1cc(C)c([N+](=O)[O-])cc1[N+](=O)[O-] | 4.39
22 | CCOC(=O)/C=C/C(=O)OCC | 4.58
23 | CS(=O)(=O)Oc1ccc(Cl)cc1Cl | 4.74

Row | Structure (SMILES) | 96 h LC50 (-log10 mol/L)
24 | Brc1ccccc1 | 4.45
25 | CN(C)C(=O)C(c1ccccc1)c1ccccc1 | 3.7
26 | N#Cc1cccc(C(F)(F)F)c1 | 3.56
27 | COC(=O)C1C(C(=O)OC)C2(Cl)C(Cl)=C(Cl)C1(Cl)C2(Cl)Cl (stereo not given) | 5.38
28 | Clc1cc(Cl)cc(C2(CC(Cl)(Cl)Cl)CO2)c1 (stereo not given) | 5.38
29 | CCNc1nc(NC(C)(C)C)nc(OC)n1 | 3.66
30 | ClCCCCCCl | 3.75
31 | C1N2CN3CN1CN(C2)C3 | 0.449
32 | CC1(C)CC(=O)CC(=O)C1 | 1.09
33 | Cc1ccc([N+](=O)[O-])c(N)c1 | 3.79
34 | COc1ccc(C(C)=O)c(OC)c1OC | 3.02
35 | CN(C)C(=O)N[C@@H]1C[C@@H]2C[C@H]1[C@@H]1CCC[C@H]21 | 3.84
36 | Cc1cc(Cl)ccc1OCCCC(=O)O | 4.26
37 | O=Cc1ccco1 | 3.57
38 | CCCSSCCC | 4.76
39 | CC(C)SSC(C)C | 4.26
40 | CC1(C)NC(=O)NC1=O | 0.89
41 | CCSCCCCSCC | 4.47
42 | OCCN1CCNCC1 | 1.31
43 | CCCCN | 2.44
44 | C=C(C)[C@H]1CC=C(C)CC1 | 5.28
45 | Oc1ccc(Oc2ccc(O)cc2)cc1 | 4.54
46 | C=C(C)C1CC=C(C)CC1 (stereo not given) | 2.15

Row | Structure (SMILES) | 96 h LC50 (-log10 mol/L)
47 | CCOC(=O)CCC(=O)OCC | 3.1
48 | O=C(O)c1c(F)cccc1F | 3.36
49 | CCOC(=O)[C@H](O)[C@@H](O)C(=O)OCC | 2.5
50 | OCc1ccoc1 | 2.29
51 | COc1ccccc1[N+](=O)[O-] | 2.9
52 | CCNS(=O)(=O)C(F)(F)C(F)(F)C(F)(F)C(F)(F)C(F)(F)C(F)(F)C(F)(F)C(F)(F)F | 6.45
53 | CC(C)(C)CC(C)(C)N | 3.72
54 | CC12CCC(C(Br)C1=O)C2(C)C (stereo not given) | 3.53
55 | CCCCC(=O)CCCC | 3.66
56 | Cc1ccc(S(=O)(=O)n2ccnc2)cc1 | 3.73
57 | CCOC(N)=O | 1.23
58 | C1COCCO1 | 0.931
59 | Nc1ccc(O)c([N+](=O)[O-])c1 | 3.63
60 | O=C(Nc1cccc(Cl)c1)c1cccc([N+](=O)[O-])c1O | 6.08
61 | CC(C)(C)c1ccc(Oc2cccc(C=O)c2)cc1 | 5.84
62 | CCN(CC)c1ccc(C=O)c(O)c1 | 4.56
63 | COc1ccccc1C(N)=O | 3.1
64 | Clc1cccc(C(Cl)(Cl)Cl)n1 | 4.37
65 | NC(=O)c1cccc(Br)c1 | 3.33
66 | c1ccc(-c2cccc(-c3ccccc3)n2)cc1 | 6.04
67 | O=CN(c1ccccc1)c1ccccc1 | 3.81
68 | c1ccc(Nc2ccccc2)cc1 | 4.65
69 | C1C2CC3CC1CC(C2)C3 | 5.68

Row | Structure (SMILES) | 96 h LC50 (-log10 mol/L)
70 | CC(C)(O)C(F)(F)C(F)F | 2.44
71 | CCOC(=O)c1ccccc1O | 3.92
72 | C1CCOC1 | 1.52
73 | CC(=O)C(C)CN(C)C (stereo not given) | 4.18
74 | OCC(F)(F)F | 2.92
75 | ClCCOCOCCCl | 2.97
76 | O=S1OCC2C(CO1)C1(Cl)C(Cl)=C(Cl)C2(Cl)C1(Cl)Cl (stereo not given) | 8.48
77 | OC1COC(O)C(O)C1O (stereo not given) | 0.6
78 | Nc1ccc(F)c(C(F)(F)F)c1 | 3.77
79 | Cc1cc2cccc(C)c2cc1C | 4.42
80 | CCCCCCCC/C=C\CCCCCCCC(=O)O | 3.14
81 | ClCc1ccccc1 | 4.4
82 | CC1CNCCN1 (stereo not given) | 1.65
83 | c1ccc(-c2ccc(-c3ccccc3)o2)cc1 | 6.64
84 | CCCCOCCOC(=O)C(C)Oc1cc(Cl)c(Cl)cc1Cl (stereo not given) | 5.57
85 | O=c1cccc(Cl)[nH]1 | 2.78
86 | Cc1cccnc1 | 2.81
87 | Cc1ccccc1F | 3.75
88 | COc1cc(C=O)cc(Br)c1O | 3.59
89 | Cc1ccc([N+](=O)[O-])c(N)c1[N+](=O)[O-] | 4.21
90 | ON=C1CCCCC1 | 2.74
91 | ClC1=C(Cl)[C@]2(Cl)[C@H]3[C@H]([C@@H]4C=C[C@H]3C4)[C@@]1(Cl)C2(Cl)Cl | 7.09
92 | Oc1c(Cl)cc(Cl)c(Cl)c1Cc1c(O)c(Cl)cc(Cl)c1Cl | 7.29

Row | Structure (SMILES) | 96 h LC50 (-log10 mol/L)
93 | Oc1ccc(Cl)cc1 | 4.46
94 | Cc1c(Cl)cc(C(C)(C)C)c(O)c1C(=O)Nc1ccc([N+](=O)[O-])cc1Cl | 7.69
95 | Nc1ccccc1C(=O)c1ccc(Cl)cc1 | 5.04
96 | CC(C)(O)C(Cl)(Cl)Cl | 3.12
97 | COc1ccc(C(c2ccc(OC)cc2)C(Cl)(Cl)Cl)cc1 | 7.61
98 | CC12CCC(CC1)C(C)(C)O2 | 3.18
99 | C=C[C@@]1(C)CC[C@H]2C(=CC[C@@H]3[C@]2(C)CCC[C@@]3(C)C(=O)O)C1 | 5.54
100 | COc1cc(Cl)c(Cl)cc1O | 4.63
101 | C1CN2CCN1CC2 | 1.81
102 | CC(C)(C)c1ccc(C(N)=O)cc1 | 3.75
103 | CCNc1cccc(C)c1 | 3.44
104 | O=Cc1c(F)cccc1Cl | 4.23
105 | COc1cccc(OC)c1C | 3.88
106 | CC(C)(c1cc(Cl)c(O)c(Cl)c1)c1cc(Cl)c(O)c(Cl)c1 | 5.44
107 | CCNCCO | 1.78
108 | OCCOc1ccccc1 | 2.6
109 | CCCCOC(=O)c1ccc(C(=O)OCCCC)cc1 | 5.67
110 | CC1(C)[C@@H]2CC[C@@]1(C)C(=O)C2 | 3.14
111 | O=CC=O | 2.43
112 | NNC(N)=S | 3.64
113 | CCC(C)n1c(=O)[nH]c(C)c(Br)c1=O (stereo not given) | 3.15
114 | CC(C)=CCC/C(C)=C/CN(C/C=C(\C)CCC=C(C)C)CCO | 6.41

The compounds below were run on Tetrahymena pyriformis (assay: 48 h IGC50 (-log10 mol/L); higher = more toxic).

Row | Structure (SMILES) | 48 h IGC50 (-log10 mol/L)
115 | O=Cc1ccc(Cl)cc1 | 3.4
116 | Nc1cc([N+](=O)[O-])cc([N+](=O)[O-])c1 | 3.94
117 | c1ccoc1 | 1.35
118 | CCCCCC(=O)OCC | 3.06
119 | N#CCCCCCCC#N | 2.23
120 | CCC(C)=NO | 1.93
121 | CCOP(=O)(Cc1ccccc1)OCC | 2.57
122 | CCCCCCCCCCC(C)=O | 4.67
123 | O=C(c1ccccc1)c1ccncc1 | 2.91
124 | CCCCOC(=O)CCC | 3.52
125 | C#CCO | 1.93
126 | O=C(O)CCCCC(=O)O | 2.39
127 | CC(O)CO (stereo not given) | 0.49
128 | C=CCc1ccc(O)c(OC)c1 | 3.42
129 | CCOC(=O)C(Cc1ccccc1)C(=O)OCC | 3.71
130 | COCCN | 1.21
